The values that follow come from patent US20230181463A1, “OLEOGEL AND OLEOPASTE COMPOSITIONS AND USES THEREOF” (Massachusetts Institute of Technology, priority 2020, published 2023).

Series [1] can be described thus: Release of ABZ from non-oil-based formulations in SIF. In kind it is in vitro ADME. As for the experimental part: To test the effect of nanosizing, the rate of release of ABZ in SIF when ABZ was used unformulated and when formulated in nanoparticles was compared. Additionally, a physical mixture of ABZ, PVA and Tween 20 was prepared to delineate the effects that the excipients had on drug release and the effect of nanosizing.
For the release study, 17.5 mg of the nanoparticle formulation, or physical mixture were placed in a 50-ml falcon tube. ABZ powder equivalent to the amount present in the physical mixture and nanoparticle formulation was used for the drug release. SIF was added to each formulation and drug release studies were conducted as described for AZT. Concentration of ABZ in release media was measured using HPLC.
ABZ samples after being prepared with methanol were analysed by Agilent 1260 Infinity I Quaternary LC equipped with a diode array detector (DAD). Isocratic elution of 0.1% formic acid in distilled water and acetonitrile was 55:45 with flow rate of 1 ml/min. Injection volume was 5 μl, and Zobrax Eclipse XDB C18 column (4.6×150 mm) was used at 40° C. The running time was 6 minutes and the retention time of ABZ is 3.4 mins. DAD was employed, and readout was detected at the wavelength of 254 nm, bandwidth of 4.0 nm and 10 Hz data acquisition rate. The method gained good peak shape and symmetry.

For series [2] the following is noted: cited from earlier work.
For series [3] the following is noted: Lindenberg et al., 2004; cited from earlier work.
The nature of series [4]: Solubility of albendazole in oil and oil-solubilizer formulations. The conditions noted are these: 28 formulations.
The nature of series [5]: Stability of AZT during synthesis of oleogel (heating in cottonseed oil at 90° C.). The conditions noted are these: AZT 1 mg/g in cottonseed oil; 0, 5 and 10 mins; one-way ANOVA, α=0.05. The series is classed as physicochemical. As for the experimental part: Twenty-five milligrams of AZT were added to cottonseed oil in a glass vial at concentration of 1 mg/g. After 60 minutes of sonication, all drug powder was dissolved. The AZT solution was divided into three parts (8 ml each). One part was maintained at room temperature, while the other two were placed on a hot plate at 90° C. for 5 minutes and 10 minutes. Forty microliters from each vial were pipetted into 1.5-ml microcentrifuge tube containing 1 ml of methanol. AZT was extracted from the oil phase into the methanol phase by shaking on a horizontal shaker overnight. Following overnight extraction, the oil phase was separated from the methanol phase by centrifugation at 14000 RPM for 10 minutes. The methanol phase was diluted before analysis using liquid chromatography-mass spectrometry (LC-MS).
AZT concentration in methanol extract was analysed by LC-MS on Agilent 1260 Infinity I Quaternary LC equipped with a diode array detector (DAD) and Agilent 6120B Single Quadrupole mass spectrometer hardware and software. Roxithromycin (RXT) was used as an internal standard of AZT analysis. The linear range of AZT detection was 10-5000 ng/ml. […] The flow rate was 0.75 ml/min while chromatograms were recorded at wavelength of 210 nm, bandwidth of 4.0 nm and 5 Hz data acquisition rate. […]

How the values of series [6] were obtained:
Solubility of three anti-infectives, azithromycin, praziquantel and lumefantrine, were measured in 108 formulations prepared by mixing various oils and solubilizers (9 oils×11 solubilizers, and 9 oils without solubilizer). Given the focus in rapid clinical translation, the weight fraction of the solubilizer was limited to the maximum level they were used in FDA-approved products.
Approximately two grams of oil-solubilizer mixtures in a 20 mL glass vial. Drug was added in excess to each formulation and the mixture was stirred overnight at room temperature. One milliliter of the mixture was removed, placed in a microcentrifuge tube, and centrifuged at 6000 rpm for 15 min to remove insoluble drug particles. A fraction of the supernant was removed and drug was extracted using methanol or acetonitrile. Drug concentrations in the extracts were measured using HPLC.
An Agilent 1260 Infinity II HPLC system equipped with a quaternary pump, autosampler, thermostat, control module, and diode array detector. Data processing and analysis was performed using OpenLab CDS ChemStation®. Praziquantel chromatographic separations were carried out on an Agilent ZORBAX Eclipse Plus C-18 analytical column (4.6>150 mm) with 5 μm particles, maintained at 40° C. Gradient separation at a flow rate of 1 mL/min was achieved using water and acetonitrile, which corresponds to A and B, respectively. The run time was 5 minutes with a 3-minute post-run and a gradient profile of: 0 min A: 70% and B: 30%, 2.5 min A: 30% and B: 70%. The injection volume was 5 μL. The diode array detector was set using an ultraviolet (UV) detection wavelength of 217 nm with no reference at an acquisition rate of 40 hertz.
Azithromycin chromatographic separations were carried out on an Agilent 4.6×150 mm ZORBAX Eclipse Plus C-18 analytical column with 5 μm particles, maintained at 40° C. Isocratic separation at a flow rate of 1 mL/min was achieved using 10% 10 mM ammonium phosphate dibasic in water and 90% methanol. The run time was 6 minutes. The injection volume was 10 μL. The diode array detector was set using an ultraviolet (UV) detection wavelength of 210 nm with no reference at an acquisition rate of 5 hertz.
Lumefantrine chromatographic separations were carried out on an Agilent Poroshell 120 PFP column (4.6×100 mm) with 2.7 μm particles, maintained at 40° C. Gradient separation at a flow rate of 1 mL/min was achieved using 0.1% formic acid in water and methanol, which corresponds to A and B, respectively. The run time was 7 minutes with a 3-minute post-run and a gradient profile of: 0 min A: 30% and B: 70%, 3 min A: 5% and B: 95%. The injection volume was 10 μL. The diode array detector was set using an ultraviolet detection wavelength of 303 nm with no reference wavelength at an acquisition rate of 40 hertz.

Series [7] in a line: Stability of drugs in oleogels. In kind it is physicochemical. The conditions noted are these: oleogel, 40° C., mean±S.D., n=5. How it is done:
Finally, the stability of drugs in oleogels was tested (Table 3.3). Oleogels loaded with drugs (Azithromycin, Lumefantrine, or Ivermectin) were placed at different temperatures. At various times, drug was extracted from the oleogel and the concentration was measured using HPLC-UV or LC-MS/MS. Drug stability (last column) is represented as mean±S.D., n=5.

For series [8] the following is noted: model input, Beringer et al., 2005; cited from earlier work.
The conditions of series [9]: cited from earlier work. This is another data set of the same source.
Series [10] in a line: In vitro digestion and drug bioaccessibility of praziquantel-loaded gel. The series is classed as in vitro ADME. The conditions noted are these: from oleogel. As for the experimental part: The digestion of gels were characterized in three simulated conditions—oral, gastric and intestinal phases (fasted state).
Simulated salivary fluid (SSF) pH 7.0 was prepared in the presence of a-amylase based on a previously described method^24,43 with slight modifications. Briefly, SSF stock solution (1.25x concentrated, 3.5 mL) was placed in a glass vial. The 1.25× SSF stock solution contained the following ingredients: 15.1 mmol/L potassium chloride, 3.7 mmol/L potassium dihydrogen phosphate, 13.6 mmol/L sodium bicarbonate, 0.15 mmol/L magnesium chloride and 0.06 mmol/L ammonium carbonate. To this 0.5 mL of a-amylase solution (0.3 mg/mL in SSF stock solution), 0.025 mL of 0.3M calcium chloride and 0.975 mL of water were added and thoroughly mixed.
The SSF was added to 0.5 g praziquantel-loaded gel placed in a pre-heated glass vial at 37° C. containing 5 glass beads to aid in mixing. The vials were placed in an incubator shaker and shaken at 160 rpm and 37° C. One hundred microliters of the sample were withdrawn periodically, centrifuged at 14,000 rpm for 15 min. The supernant was collected and syringe filtered through a 0.22 μm nylon syringe filter (Nalgene Syringe Filters, Thermo Scientific™). Drug concentration in the filtrate was analyzed using HPLC.
In vitro digestion in gastric phase was performed in 7.5 mL simulated gastric fluid (SGF) pH 2 (2 g/L sodium chloride, 2.917 g/L concentrated hydrochloric acid) in the presence of pepsin (3.4 g/L). […] Samples (0.2 mL) were withdrawn periodically, centrifuged at 14,000 rpm for 15 min and syringe filtered through 0.22 μm nylon syringe filters (Nalgene Syringe Filters, Thermo Scientific™) prior to drug quantification with HPLC.
The fasting state simulated intestinal fluid version 2 (FaSSIF-V2) medium pH 6.5 was prepared based on a previously described method^44 in the presence of pancreatin (8×USP specification). […] Samples were then centrifuged for 15 min at 14,000 rpm at room temperature and drug concentration in the supernatant was measured using HPLC.

A short description of series [11]: Stability of ivermectin during heating. In kind it is physicochemical. The conditions noted are these: peceol, ricebran wax, cottonseed oil. As for the experimental part:
As manufacturing of the formulation involves heating, the stability of ivermectin during heating was assessed (see FIG. 24).

Turning to `CCCSc1ccc2nc(NC(=O)OC)[nH]c2c1` [ABZ, albendazole], the “ABZ released and solubilized, plateau concentration” value in [1] (90-minute release, not formulated in oil) was 0.05 µg/mL. Besides, the “drug release (in words)” value in series [1] (not formulated in oils, FIGS. 36A-36C) is “no drug release measured”. The “reported water solubility of albendazole” value in series [2] was 41 µg/g. Also, in series [3], the absorption extent is on record as below 5%. Moreover, in series [4], the “solubility in oil and oil-solubilizer formulations higher than reported water solubility” value is around 10 fold.

Regarding `CC[C@H]1OC(=O)[C@H](C)[C@@H](O[C@H]2C[C@@](C)(OC)[C@@H](O)[C@H](C)O2)[C@H](C)[C@@H](O[C@@H]2O[C@H](C)C[C@H](N(C)C)[C@H]2O)[C@](C)(O)C[C@@H](C)CN(C)[C@H](C)[C@@H](O)[C@]1(C)O` [AZT, azithromycin], in series [5], the “AZT concentrations after heating at 90° C.” value is “no statistical effect of temperature on AZT concentrations”. In addition, in series [6], the “solubility of azithromycin in the oils” value was 6 to 10 mg/g and the “water solubility lower than certain tested formulations” value is around 100 fold. Moreover, the “% drug stable” value in series [7] (44 days, Propyl gallate) was 99 ± 5%. For the same molecule, the “ka (absorption rate constant)” value in series [8] was 0.452 h⁻¹. The “solubility of azithromycin in water” value in series [9] (reference 39) is around 0.2 mg/g.

For `CCCCN(CCCC)CC(O)c1cc(Cl)cc2c1-c1ccc(Cl)cc1/C2=C/c1ccc(Cl)cc1` (stereo not drawn) [lumefantrine], in [6], the “average solubility in other Labrafac lipophile formulations lower than with flaxseed oil” value is around 1.6 fold, the “average solubility of lumefantrine” value came out at 16.6 ± 3.8 mg/g, the “solubility in tested formulations higher than reported water solubility” value is recorded as around 10000 fold and the solubility of lumefantrine was found to be 26.6 ± 1.8 mg/g. Moreover, the “solubility of lumefantrine in the oils” value in series [6] was above 10 mg/g. Also, the “reported water solubility of lumefantrine” value in series [9] (reference 40) was below 2 µg/g.

Regarding `O=C(C1CCCCC1)N1CC(=O)N2CCc3ccccc3C2C1` (stereo not drawn) [praziquantel], in series [6], the “solubility in sunflower oil higher than in the rest of the oils” value is around 2 fold and the “solubility of praziquantel in most oils” value fell in the range of 5 to 7 mg/g. Besides, in [10] (FaSSIF-V2 with pancreatin, t=15 min), the “solubilized fraction of praziquantel in the aqueous intestinal phase” value is 51%. In series [10] (simulated gastric digestion (SGF pH 2), within 30 min, plateau to 2 h), the “praziquantel in the aqueous phase, maximum of total drug content” value is recorded as 10%. Further, the “praziquantel detected in the SSF, of total drug content” value in series [10] (simulated salivary fluid) is at most 1%.

As for ivermectin, the “drug recovered after heating” value in series [11] was 100%. Besides, in series [7] (28 days, Butylated hydroxyanisole), the “% drug stable” value was determined as 98 ± 11%.
